Data taken from patent US20150164762A1, “USE OF ETHANOLAMINE PHOSPHATE” (priority 2012, published 2015).

Legend:
BEAS-2B [1] = assay: Transepithelial electrical resistance (TER), BEAS-2B; assay type: cell-based, human; conditions: EP 1 mM, 1% FBS
Description: Cells of the established normal human airway epithelial cell line BEAS-2B were seeded to 1×10^5 cells/cm^2 on a cell culture insert (353104, BD Falcon) (FIG. 14). 10% FBS RPMI-1640 was used as the medium. The amount of medium was 200 μl on the insert side and 750 μl on the well side. Beginning the next day, substitution/medium replacement was performed once a day with 1% FBS RPMI-1640 prepared with the following 4 reagent conditions, and transepithelial electrical resistance (TER) was measured with MilliCell (Millipore). • Condition 1: Control • Condition 2: EP 1 mM • Condition 3: Dexamethasone 1 μM (dexamethasone (Dex): positive control substance known to enhance barrier function) • Condition 4: EP 1 mM and Dex 1 μM

Calu-3 cells = assay: Transepithelial electrical resistance (TER), Calu-3; assay type: cell-based, human; conditions: 1 mM EP, 0.1% FBS
Description: Calu-3 cells were seeded to 3×10^5 cells/cm^2 on a cell culture insert (353104, BD Falcon). They were cultured until confluent in 10% FBS RPMI-1640, and once confluence was reached, 0.1% FBS RPMI-1640 containing the following was substituted, and the medium was replaced every day. TER was measured as in Example 11. The results are shown in FIG. 15. • Condition 1: Control • Condition 2: 1 μM dexamethasone • Condition 3: 1 mM EP

NHLF cells = assay: WST-8 proliferation test, primary normal human lung fibroblasts (NHLF); assay type: cell-based; conditions: 0% FBS DMEM, 124 hours
From the text: 10% FBS-DMEM was used as the medium.

BEAS-2B [2] = assay: Proliferative effects of EP and its metabolic derivatives (WST-8); assay type: cell-based, human; conditions: 0.1% FBS, 72 hours
IL-8 = assay: ELISA of IL-8 secreted from THP-1 cells, with or without LPS; assay type: cell-based, human
Description: (§1) Human monocytic cultured THP-1 cells were cultured logarithmically as follows in 10% FBS RPMI-1640 growth culture. Cells were seeded to 4×10^5/ml on a 24-well plate (500 μl/well), additional growth culture containing EP was added, and finally the EP concentration was adjusted to the target concentration (0.1 mM, 1 mM). 2 hours after EP administration, further growth medium containing lipopolysaccharides (LPS) was added, and adjusted to concentrations of 0.1 μg/ml and 1 μg/ml.
(§2) 4 hours and 24 hours after lipopolysaccharide administration, the medium was collected, the cells were precipitated by centrifugation, and the supernatant was used as an ELISA sample. As in the Singh et al. report, the inflammatory cytokine TNF-α and the chemokine IL-8, which attracts inflammatory cells, were used as ELISA measurement indicators.

caspase 3/7 = assay: Serum-free stress-induced caspase 3/7 activity (Caspase-Glo3/7 assay) per cell; assay type: cell-based, human; conditions: 0% FBS, 24 hours
Description: After medium replacement, 10 μl per well of EP or FBS solution was added. After 24 hours, a proliferation test (WST-8 assay) and caspase 3/7 assay (Caspase-Glo3/7 assay, Promega) were performed. […] Caspase 3/7 activity was measured by a luminescence test, the blank average was subtracted, and this was divided by the corrected absorbance (corresponding to relative cell number) from the WST-8 assay to calculate the caspase 3/7 activity per cell.

TNF-α = assay: ELISA of TNF-α secreted from THP-1 cells, with or without LPS; assay type: cell-based, human
Description: as §1, §2

[3] = 4 hours and 24 hours of stimulus, EP 0.1 mM, 1 mM
[4] = cells not treated with LPS, 26 hours, 1 mM EP

Compound: NCCOP(=O)(O)O [EP, Ethanolamine phosphate]
- increase in TER (BEAS-2B [1]): 49%
- rise in TER value relative to the control (Calu-3 cells): 2.0 fold
- growth-stimulating effect (NHLF cells): growth-stimulating effect
- proliferative action (BEAS-2B [2]): dose-dependent proliferative action
- secretion of LPS-induced IL-8 (IL-8; [3]): dose-dependently suppressed
- IL-8 secretion, reduced to % of untreated (IL-8; [4]): about 43%
- FBS concentration whose effect EP 1000 μM corresponds to (regression curve) (caspase 3/7): 2.2%
- caspase 3/7 activity per cell (caspase 3/7; 1000 μM): about 0.72 fold
- secretion of LPS-induced TNF-α (TNF-α; [3]): dose-dependently suppressed
- amount of TNF-α induced by LPS stimulus (TNF-α; LPS 1 μg/ml, 24 hours of stimulus, EP 1 mM): about 70 pg/ml
- TNF-α secretion, reduced to % of untreated (TNF-α; [4]): about 78%
